Data taken from patent publication US20240217978A1 (CHONG KUN DANG PHARMACEUTICAL CORP., priority 2021, published 2024).

Biological target: human adenosine A2a receptor (Homo sapiens (Human), UniProt P29274)
Experiment: A2a receptor binding affinity, [3H]-NECA radioligand binding test
Settings: [3H]-NECA 37 nM; membrane from HEK-293 cells transfected with human adenosine A2a receptor
Procedure, shortened: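 Membranes from HEK-293 cells expressing human A2a receptor were incubated with [3H]-NECA (final 37 nM) and compound for 1 h at room temperature in 50 mM Tris, 10 mM MgCl2, 1 mM EDTA, pH 7.4. Bound ligand was filtered on PEI-coated plates and counted by scintillation to derive IC50 (μM).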

Sequence of human adenosine A2a receptor (P29274 whole entry): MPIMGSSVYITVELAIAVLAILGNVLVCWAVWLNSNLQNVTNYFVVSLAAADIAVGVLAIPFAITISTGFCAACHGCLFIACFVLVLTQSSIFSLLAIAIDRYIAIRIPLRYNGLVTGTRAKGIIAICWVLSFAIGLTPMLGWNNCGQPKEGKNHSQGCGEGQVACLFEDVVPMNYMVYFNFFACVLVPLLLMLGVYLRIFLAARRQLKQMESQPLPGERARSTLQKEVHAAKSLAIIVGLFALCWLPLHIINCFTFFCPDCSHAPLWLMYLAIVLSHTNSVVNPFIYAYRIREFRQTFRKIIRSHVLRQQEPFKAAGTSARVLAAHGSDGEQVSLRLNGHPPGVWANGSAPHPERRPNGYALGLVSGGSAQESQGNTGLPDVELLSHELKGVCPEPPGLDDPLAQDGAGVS

For `Cc1ccc(-c2nc3nc(N4CC[C@H]4C(=O)N4CCN(C5CCCCC5)CC4)nc(N)n3n2)o1` [Example 219, (S)-(1-(7-amino-2-(5-methylfuran-2-yl)-[1,2,4]triazolo[1,5-a][1,3,5]triazin-5-yl)azetidin-2-yl)(4-cyclohexylpiperazin-1-yl)methanone], the IC50 was 3 nM.

`Nc1nc(N2CCC[C@H]2C(=O)N2CCN(C3CC3)CC2)nc2nc(-c3ccco3)nn12` [Example 139, (S)-(1-(7-amino-2-(furan-2-yl)-[1,2,4]triazolo[1,5-a][1,3,5]triazin-5-yl)pyrrolidin-2-yl)(4-cyclopropylpiperazin-1-yl)methanone] gave an IC50 of 28 nM.

For `Nc1nc(N2CCC[C@H]2C(=O)N2CCN(CC3(C(F)(F)F)CCCCC3)CC2)nc2nc(-c3ccco3)nn12` [Example 285], the IC50 was 0.2 nM.

With `CC(C)[C@H](Nc1nc(N)n2nc(-c3ccco3)nc2n1)C(=O)N1CCN(Cc2ccccc2)CC1` [Example 58, (S)-2-((7-amino-2-(furan-2-yl)-[1,2,4]triazolo[1,5-a][1,3,5]triazin-5-yl)amino)-1-(4-benzylpiperazin-1-yl)-3-methylbutan-1-one] the IC50 was 15 nM.

Compound `CC(C)(O)CC(=O)N1CCN(C(=O)[C@@H]2CCCN2c2cc3nc(-c4ccco4)nn3c(N)n2)CC1` [Example 292, 1-(4-((5-amino-2-(furan-2-yl)-[1,2,4]triazolo[1,5-c]pyrimidin-7-yl)-L-prolyl)piperazin-1-yl)-3-hydroxy-3-methylbutan-1-one] has an IC50 of 21 nM.

Compound `CCC(F)(F)CN1CCN(C(=O)[C@@H]2CCCN2c2nc(N)c3nc(-c4ccco4)oc3n2)CC1` [Example 270, (S)-(1-(7-amino-2-(furan-2-yl)oxazolo[5,4-d]pyrimidin-5-yl)pyrrolidin-2-yl)(4-(2,2-difluorobutyl)piperazin-1-yl)methanone] has an IC50 of 9 nM.

In the case of `Nc1nc(N2CCC[C@H]2C(=O)N2CCN(CC(F)(F)F)CC2)nc2sc(-c3ccco3)nc12` [Example 238, (S)-(1-(7-amino-2-(furan-2-yl)thiazolo[5,4-d]pyrimidin-5-yl)pyrrolidin-2-yl)(4-(2,2,2-trifluoroethyl)piperazin-1-yl)methanone], the IC50 is reported as 3 nM.

With `Cc1ccc(-c2nc3nc(N4CCC[C@H]4C(=O)N4CCN(CCCC(F)(F)F)CC4)nc(N)n3n2)o1` [Example 300, (S)-(1-(7-amino-2-(5-methylfuran-2-yl)-[1,2,4]triazolo[1,5-a][1,3,5]triazin-5-yl)pyrrolidin-2-yl)(4-(4,4,4-trifluorobutyl)piperazin-1-yl)methanone] the IC50 was 9 nM.

Work on `Nc1nc(N[C@H](C(=O)N2CCN(c3ccc(F)cc3F)CC2)C2CCOCC2)nc2nc(-c3ccco3)nn12` [Example 171, (S)-2-((7-amino-2-(furan-2-yl)-[1,2,4]triazolo[1,5-a][1,3,5]triazin-5-yl)amino)-1-(4-(2,4-difluorophenyl)piperazin-1-yl)-2-(tetrahydro-2H-pyran-4-yl)ethan-1-one] yielded an IC50 of 3 nM.

With `CCOC(=O)c1ccc(N2CCN(C(=O)[C@@H]3CCCN3c3nc(N)n4nc(-c5ccco5)nc4n3)CC2)cc1` [Example 123, Ethyl 4-(4-((7-amino-2-(furan-2-yl)-[1,2,4]triazolo[1,5-a][1,3,5]triazin-5-yl)-L-prolyl)piperazin-1-yl)benzoate] the IC50 was 0.5 nM.

Work on `Cc1ccc(-c2nc3nc(N4CC[C@H]4C(=O)N4CCN(Cc5ccc(F)cc5F)CC4)nc(N)n3n2)o1` [Example 208, (S)-(1-(7-amino-2-(5-methylfuran-2-yl)-[1,2,4]triazolo[1,5-a][1,3,5]triazin-5-yl)azetidin-2-yl)(4-(2,4-difluorobenzyl)piperazin-1-yl)methanone] yielded an IC50 of 3 nM.

For `CC(C)(F)CN1CCN(C(=O)[C@@H](Nc2nc(N)n3nc(-c4ccco4)nc3n2)C2CCCCC2)CC1` [Example 147, (S)-2-((7-amino-2-(furan-2-yl)-[1,2,4]triazolo[1,5-a][1,3,5]triazin-5-yl)amino)-2-cyclohexyl-1-(4-(2-fluoro-2-methylpropyl)piperazin-1-yl)ethan-1-one], the IC50 was 3 nM.

`CC(F)(F)CN1CCN(C(=O)[C@@H]2CCCN2c2nc(N)n3nc(-c4ccco4)nc3n2)C2(CC2)C1` [Example 343, (S)-(1-(7-amino-2-(furan-2-yl)-[1,2,4]triazolo[1,5-a][1,3,5]triazin-5-yl)pyrrolidin-2-yl)(7-(2,2-difluoropropyl)-4,7-diazaspiro[2.5]octan-4-yl)methanone] gave an IC50 of 9 nM.

`CC[C@H](Nc1nc(N)n2nc(-c3ccco3)nc2n1)C(=O)N1CCN(CC(C)(C)F)CC1` [Example 338, (S)-2-((7-amino-2-(furan-2-yl)-[1,2,4]triazolo[1,5-a][1,3,5]triazin-5-yl)amino)-1-(4-(2-fluoro-2-methylpropyl)piperazin-1-yl)butan-1-one] showed an IC50 of 14 nM.

With `CCC(F)(F)CN1CCN(C(=O)[C@@H]2CCN2c2nc(N)n3nc(-c4ccco4)nc3n2)CC1` [Example 254, (S)-(1-(7-amino-2-(furan-2-yl)-[1,2,4]triazolo[1,5-a][1,3,5]triazin-5-yl)azetidin-2-yl)(4-(2,2-difluorobutyl)piperazin-1-yl)methanone] the IC50 was 12 nM.

In the case of `Nc1nc(N2CCCC[C@H]2C(=O)N2CCN(CC(F)(F)C(F)(F)F)CC2)nc2nc(-c3ccco3)nn12` [Example 280, (S)-(1-(7-amino-2-(furan-2-yl)-[1,2,4]triazolo[1,5-a][1,3,5]triazin-5-yl)piperidin-2-yl)(4-(2,2,3,3,3-pentafluoropropyl)piperazin-1-yl)methanone], the IC50 is reported as 9 nM.

`Cc1ccc(-c2nc3nc(N4CCC[C@H]4C(=O)N4CCN(CC(C)(F)F)CC4)nc(N)n3n2)o1` [Example 311, (S)-(1-(7-amino-2-(5-methylfuran-2-yl)-[1,2,4]triazolo[1,5-a][1,3,5]triazin-5-yl)pyrrolidin-2-yl)(4-(2,2-difluoropropyl)piperazin-1-yl)methanone] showed an IC50 of 2 nM.

With `C[C@H](Nc1nc(N)n2nc(-c3ccco3)nc2n1)C(=O)N1CCN(CC(F)(F)C(F)(F)F)CC1` [Example 319, (S)-2-((7-amino-2-(furan-2-yl)-[1,2,4]triazolo[1,5-a][1,3,5]triazin-5-yl)amino)-1-(4-(2,2,3,3,3-pentafluoropropyl)piperazin-1-yl)propan-1-one] the IC50 was 15 nM.

For `Nc1nc(N2CCC[C@H]2C(=O)N2CCC(C3CCN(CC(F)(F)F)CC3)CC2)cc2nc(-c3ccco3)nn12` [Example 376, (S)-(1-(5-amino-2-(furan-2-yl)-[1,2,4]triazolo[1,5-c]pyrimidin-7-yl)pyrrolidin-2-yl)(1′-(2,2,2-trifluoroethyl)-[4,4′-bipiperidin]-1-yl)methanone], the IC50 was 1 nM.

In the case of `CC(F)(F)CN1CCC(C2CCN(C(=O)[C@@H]3CCN3c3nc(N)n4nc(-c5ccco5)nc4n3)CC2)CC1` [Example 324, (S)-(1-(7-amino-2-(furan-2-yl)-[1,2,4]triazolo[1,5-a][1,3,5]triazin-5-yl)azetidin-2-yl)(1′-(2,2-difluoropropyl)-[4,4′-bipiperidin]-1-yl)methanone], the IC50 is reported as 5 nM.

In the case of `CC(F)(F)CN1CCC(C2CCN(C(=O)[C@@H]3CCCN3c3cc4nc(-c5ccco5)nn4c(N)n3)CC2)CC1` [Example 394, (S)-(1-(5-amino-2-(furan-2-yl)-[1,2,4]triazolo[1,5-c]pyrimidin-7-yl)pyrrolidin-2-yl)(1′-(2,2-difluoropropyl)-[4,4′-bipiperidin]-1-yl)methanone], the IC50 is reported as 15 nM.

`Nc1nc(N2CCC[C@H]2C(=O)N2CCC(C3CCN(CC(F)(F)C(F)F)CC3)CC2)nc2nc(-c3ccco3)nn12` [Example 289, (S)-(1-(7-amino-2-(furan-2-yl)-[1,2,4]triazolo[1,5-a][1,3,5]triazin-5-yl)pyrrolidin-2-yl)(1′-(2,2,3,3-tetrafluoropropyl)-[4,4′-bipiperidin]-1-yl)methanone] was tested, and the IC50 was 9 nM.

`Nc1nc(N2CCC[C@H]2C(=O)N2CCN(Cc3ccc(F)cc3)CC2)nc2nc(-c3ccco3)nn12` [Example 45, (S)-(1-(7-amino-2-(furan-2-yl)-[1,2,4]triazolo[1,5-a][1,3,5]triazin-5-yl)pyrrolidin-2-yl)(4-(4-fluorobenzyl)piperazin-1-yl)methanone] was tested, and the IC50 was 19 nM.

Work on `CC(C)(O)CC(=O)N1CCN(C(=O)[C@@H]2CCCN2c2nc(N)c3nc(-c4ccco4)sc3n2)CC1` [Example 262, 1-(4-((7-amino-2-(furan-2-yl)thiazolo[5,4-d]pyrimidin-5-yl)-L-prolyl)piperazin-1-yl)-3-hydroxy-3-methylbutan-1-one] yielded an IC50 of 5 nM.

With `Nc1nc(N2CCC[C@H]2C(=O)N2CCN(C3CCC(F)(F)CC3)CC2)nc2nc(-c3ccco3)nn12` [Example 56, (S)-(1-(7-amino-2-(furan-2-yl)-[1,2,4]triazolo[1,5-a][1,3,5]triazin-5-yl)pyrrolidin-2-yl)(4-(4,4-difluorocyclohexyl)piperazin-1-yl)methanone] the IC50 was 8 nM.

`CC(C)(C)N1CCN(C(=O)[C@@H]2CCCN2c2nc(N)n3nc(-c4ccco4)nc3n2)CC1` [Example 137, (S)-(1-(7-amino-2-(furan-2-yl)-[1,2,4]triazolo[1,5-a][1,3,5]triazin-5-yl)pyrrolidin-2-yl)(4-(tert-butyl)piperazin-1-yl)methanone] showed an IC50 of 48 nM.

Work on `Nc1nc(N[C@@H](CO)C(=O)N2CCN(CC(F)(F)F)CC2)nc2nc(-c3ccco3)nn12` [Example 231, (S)-2-((7-amino-2-(furan-2-yl)-[1,2,4]triazolo[1,5-a][1,3,5]triazin-5-yl)amino)-3-hydroxy-1-(4-(2,2,2-trifluoroethyl)piperazin-1-yl)propan-1-one] yielded an IC50 of 5 nM.

`Nc1nc(N2CCC[C@H]2C(=O)N2CCC(F)(F)CC2)nc2nc(-c3ccco3)nn12` [Example 55, (S)-(1-(7-amino-2-(furan-2-yl)-[1,2,4]triazolo[1,5-a][1,3,5]triazin-5-yl)pyrrolidin-2-yl)(4,4-difluoropiperidin-1-yl)methanone] gave an IC50 of 16 nM.

`COCCN1CCN(C2CN(C(=O)[C@@H]3CCCN3c3nc(N)n4nc(-c5ccco5)nc4n3)C2)CC1` [Example 405, (S)-(1-(7-amino-2-(furan-2-yl)-[1,2,4]triazolo[1,5-a][1,3,5]triazin-5-yl)pyrrolidin-2-yl)(3-(4-(2-methoxyethyl)piperazin-1-yl)azetidin-1-yl)methanone] showed an IC50 of 71 nM.
